These results are taken from patent US20030186269A1, “Ssa-56 kda polypeptide and its fragments and polynucleotides encoding said polypeptides and therapeutic uses” (priority 2000, published 2003).

For one series, the system named is chemokines. Kind of series: Profile of secreted cytokines and chemokines in PBMC cultures. It is filed as cell-based, human. The settings on record: PBMC cultures of HIV patients. An excerpt:
(§1) Specifically, MB inhibits by 70 to 100% the level of HIV viral protein p24 in the culture supernatants. This effect correlates with the level of expression of viral messenger RNAs (nonspliced and single-spliced).

The conditions of series [1]: HIV+ patients, phase I and phase IIa; cited from earlier work.
Series [2] has as its system human immunodeficiency virus (HIV). The settings on record: macrophages and dendritic cells, PBMCs of infected patients; cited from earlier work.
The conditions of series [3]: cited from earlier work.
For series [4] the following is noted: healthy volunteers and patients suffering from cancer; cited from earlier work.
The subject of another series is PBMCs. Put plainly: Toxicity (number of live cells) in the same PBMC cultures. The series is classed as cell-based, human. The following applies: live cells unchanged at start, appear to increase at end of culturing.
Description: as §1

Series [5] relates to mRNA encoding the Ro/SSA-like protein. Put plainly: Semiquantitative RT-PCR of the expression of the mRNA encoding Ro/SSA-like in PBMCs. It is filed as cell-based, human. How it is done:
PBMCs from patients (P) infected with HIV or from control healthy donors (C) are isolated, depleted of CD8+ (Dynabeads, Dynal) and stimulated with PHA (5 μg/ml) for 3 days. The cells are then treated or not treated with murabutide (10 μ/ml) in the presence of interleukin 2 (IL2) (10U/ml) in RPMI medium supplemented with 10% fetal calf serum (FCS) for 6 hours or 24 hours in a proportion of a minimum of 5×10^6 cells per condition.
After treatment, the RNA in the cells is extracted (RNAplus, Quantum-bioprobe), then treated with DNase (Boerhinger) and reverse transcribed (RT) using an oligo(dT) in the presence of the Mu-MLV reverse transcriptase (Superscript II, Gibco).
The quality of the RTs is verified by PCR (25 cycles) with primers specific for GAPDH (5′GCCATCAATGACCCCTTCATTGAC 3′) (SEQ ID No. 18) and (5′TGACGAACATGGGGGCATCAGCAG 3′) (SEQ ID No. 19) using 20, 100 and 500 ng of total RNA. The inventors then carried out RT-PCRs (35 cycles) with primers specific for the mRNA encoding Ro/SSA-like, (5′ GAAAGAGAGGTCGCAGAGGCCTGT 3′) (SEQ ID No. 20) and (5′ TGATAAGGCTGAGGAAGGGAAATG 3′) (SEQ ID No. 21). The number of amplification cycles was determined beforehand (35 cycles). The amplified fragments are visualized on agarose gel (1%) in the presence of ethidium bromide, and then quantified using the Imager master program (Pharmacia).
For each dilution, the given value for the gene studied is related to that of the GAPDH (ratio=R). For each patient and each time (6 h or 24 h), the R of the cells treated with murabutide is related to that of the untreated cells. The results are then expressed as % increase or inhibition of expression of the gene relative to the untreated cells. It should be noted that, for each dilution tested, the R can vary slightly; the mean for the Rs was produced by taking care to always be in the linear phase of amplification.

For series [6], the target named is recombinant Ro/SSA-like (SSA-56) protein, complete 485 aa open reading frame, His-tagged, expressed in E. coli (human) (UniProt Q6AZZ1). Put plainly: ELISA on coated recombinant protein, control at 1/100. For orientation: In an ELISA, binding on a coated surface is turned into a signal by an enzyme label.
Series [7] concerns the target recombinant SSA-52 protein (human) (UniProt P19474). Described as above.
Chain of UniProt P19474 (P19474 whole entry): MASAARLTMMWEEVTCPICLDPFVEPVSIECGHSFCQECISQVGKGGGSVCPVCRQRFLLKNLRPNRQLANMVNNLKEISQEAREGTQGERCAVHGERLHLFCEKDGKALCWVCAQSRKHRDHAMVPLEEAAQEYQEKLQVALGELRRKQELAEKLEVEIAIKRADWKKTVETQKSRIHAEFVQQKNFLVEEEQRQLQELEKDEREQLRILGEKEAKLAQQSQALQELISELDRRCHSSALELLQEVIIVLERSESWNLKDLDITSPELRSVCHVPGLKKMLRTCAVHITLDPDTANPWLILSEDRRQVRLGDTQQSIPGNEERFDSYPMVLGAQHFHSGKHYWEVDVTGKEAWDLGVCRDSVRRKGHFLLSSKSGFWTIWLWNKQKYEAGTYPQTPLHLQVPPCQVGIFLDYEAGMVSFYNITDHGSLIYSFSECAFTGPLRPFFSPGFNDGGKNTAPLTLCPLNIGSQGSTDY
The next series concerns the target HIV Tat (HIV). The description is as above.
Series [8] has as its target recombinant SSA-60 protein (UniProt P10155). Described as above.
Chain of UniProt P10155 (P10155 whole entry): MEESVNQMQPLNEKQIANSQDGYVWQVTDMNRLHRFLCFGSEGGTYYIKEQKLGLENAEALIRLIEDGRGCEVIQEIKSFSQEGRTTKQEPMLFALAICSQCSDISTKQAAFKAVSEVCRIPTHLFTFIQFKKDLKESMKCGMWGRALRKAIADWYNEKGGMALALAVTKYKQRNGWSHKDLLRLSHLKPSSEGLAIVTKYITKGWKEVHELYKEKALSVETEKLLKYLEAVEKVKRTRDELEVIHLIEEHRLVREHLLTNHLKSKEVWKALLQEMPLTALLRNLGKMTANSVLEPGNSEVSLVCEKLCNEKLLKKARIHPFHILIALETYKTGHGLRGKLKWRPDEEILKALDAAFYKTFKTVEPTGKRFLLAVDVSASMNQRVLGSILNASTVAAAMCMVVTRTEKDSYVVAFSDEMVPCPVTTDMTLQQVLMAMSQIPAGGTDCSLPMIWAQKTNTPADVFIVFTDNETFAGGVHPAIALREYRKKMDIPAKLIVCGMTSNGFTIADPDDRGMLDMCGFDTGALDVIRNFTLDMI
A further series addresses HIV Nef (HIV). The series is described as above.
Series [9] deals with recombinant SSB-48 protein (UniProt P05455). The description is as above.
Chain of UniProt P05455 (P05455 whole entry): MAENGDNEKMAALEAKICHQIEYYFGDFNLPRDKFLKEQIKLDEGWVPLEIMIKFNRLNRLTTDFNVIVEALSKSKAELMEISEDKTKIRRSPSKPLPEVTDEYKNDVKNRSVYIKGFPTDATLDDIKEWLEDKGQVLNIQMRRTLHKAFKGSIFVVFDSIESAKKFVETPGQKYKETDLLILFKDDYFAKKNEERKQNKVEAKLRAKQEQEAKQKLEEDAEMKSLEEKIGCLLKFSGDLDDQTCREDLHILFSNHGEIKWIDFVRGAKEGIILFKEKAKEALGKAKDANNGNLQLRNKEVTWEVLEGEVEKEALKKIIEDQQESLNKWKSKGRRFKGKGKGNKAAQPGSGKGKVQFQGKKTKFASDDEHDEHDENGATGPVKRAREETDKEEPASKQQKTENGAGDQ
Another series deals with Helicase. Described as above.

On to `CCCCOC(=O)[C@@H](CCC(N)=O)NC(=O)[C@H](C)NC(=O)[C@@H](C)O[C@H]1[C@H](O)[C@@H](CO)OC(O)[C@@H]1NC(C)=O` (some centres unmarked) [Murabutide], for which the “induction of chemokines known to be inhibitors of HIV replication” value with chemokines is “induces reproduction of chemokines”. Further, the clinical tolerance entry in [1] is given as “good clinical tolerance”. In [2], the HIV replication entry is listed as “inhibits human immunodeficiency virus (HIV) replication”. Further, the inflammatory reactions entry in series [3] (in vivo) is recorded as “does not induce inflammatory reactions”. The pyrogenicity result in [3] (unlike MDP and many other analogs) is listed as “not pyrogenic”. Also, the “severe toxicity in clinical studies” value in series [4] is “has not shown any severe toxicity”. The “toxicity, number of live cells” value with PBMCs is “lack of toxicity”. Also, the “inhibition of expression of the mRNA encoding Ro/SSA-like” value in series [5] (PBMCs from HIV+ patients after stimulation with murabutide) is recorded as “significant inhibition”; in [5] (PBMCs from healthy controls, observed only in 3 cases out of 8), “inhibition is weaker”. In addition, the “inhibition of expression of the mRNA encoding Ro/SSA-like relative to untreated cells” value in series [5] (PBMCs from HIV+ patients, murabutide 10 μ/ml, 6 h or 24 h, 7 patients/10) is recorded as “more than 40%”.
In the case of Control SP20, the Absorbance value at 1/100 amounted to 0.058 absorbance in [6]; 0.059 absorbance in [7]; 0.068 absorbance with HIV Tat (HIV); 0.068 absorbance in [8]; 0.056 absorbance with HIV Nef (HIV); 0.051 absorbance in series [9]. In addition, in the series with Helicase, the Absorbance value at 1/100 worked out at 0.055 absorbance.
